Source: paper PMC10266417, “LeishIF3d is a non-canonical cap-binding protein in Leishmania” (Frontiers in Molecular Biosciences, 2023)

Legend:
LeishIF3d = target: T1, LeishIF3d (Leishmania mexicana, UniProt E9B178); assay: m7GTP-agarose affinity binding of purified His-tagged protein, elution with free m7GTP, anti-His western blot; conditions: m7GTP immobilised on agarose; eluted with free m7GTP
T1 construct: gene LMXM_29_3040; full ORF (1596 bp); recombinant His-tagged from E. coli BL21 (pET52, Ni-NTA); mutants C-terminally SBP-tagged, expressed episomally in L. mexicana
T1 sequence (E9B178 1-531): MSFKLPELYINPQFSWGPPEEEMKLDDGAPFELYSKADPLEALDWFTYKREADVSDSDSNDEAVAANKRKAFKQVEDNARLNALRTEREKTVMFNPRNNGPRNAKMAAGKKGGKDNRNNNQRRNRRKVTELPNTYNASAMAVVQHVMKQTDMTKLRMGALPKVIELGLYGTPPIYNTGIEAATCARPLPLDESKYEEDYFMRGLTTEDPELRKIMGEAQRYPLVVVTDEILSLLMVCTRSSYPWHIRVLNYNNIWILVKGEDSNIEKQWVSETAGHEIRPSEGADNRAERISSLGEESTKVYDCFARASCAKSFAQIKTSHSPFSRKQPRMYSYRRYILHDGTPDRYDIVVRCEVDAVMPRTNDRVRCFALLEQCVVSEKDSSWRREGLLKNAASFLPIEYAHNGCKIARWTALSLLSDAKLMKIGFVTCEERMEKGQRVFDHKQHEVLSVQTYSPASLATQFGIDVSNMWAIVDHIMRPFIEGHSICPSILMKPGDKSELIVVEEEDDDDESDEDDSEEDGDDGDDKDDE

LeishIF4E1 = target: T2, LeishIF4E1 (Leishmania mexicana, UniProt E9AZ65); assay: m7GTP-agarose affinity pull-down, western blot with LeishIF4E1-specific antibodies; type: biochemical; conditions: L. mexicana extract; m7GTP immobilised on agarose; 20 mM HEPES pH 7.4, 50 mM NaCl; 100 uM GTP wash, 200 uM m7GTP elution; positive control
T2 construct: gene LMXM_27_1620; endogenous untagged protein in L. mexicana promastigote extract, detected with specific antibodies
T2 sequence (E9AZ65 1-213): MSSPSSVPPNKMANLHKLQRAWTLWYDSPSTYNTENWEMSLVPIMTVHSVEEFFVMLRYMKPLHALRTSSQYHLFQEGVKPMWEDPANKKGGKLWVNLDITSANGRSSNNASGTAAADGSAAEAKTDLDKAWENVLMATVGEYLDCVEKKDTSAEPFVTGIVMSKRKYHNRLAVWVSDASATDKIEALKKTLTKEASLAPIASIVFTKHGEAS

Compound: C[n+]1cn([C@@H]2O[C@H](COP(=O)(O)OP(=O)(O)OP(=O)(O)O)[C@@H](O)[C@H]2O)c2nc(N)[nH]c(=O)c21 [m^7GTP]
- m7GTP-agarose affinity binding of purified His-tagged protein, elution with free (LeishIF3d): direct binding of recombinant His-tagged LeishIF3d to m^7GTP
- m7GTP-agarose affinity pull-down, western blot with LeishIF4E1-specific antibodi (LeishIF4E1): LeishIF3d could bind m^7GTP, as did the positive control of LeishIF4E1
